{"source": "patent US20130295579A1", "about": "“METHOD FOR PREPARING INDUCED PLURIPOTENT STEM CELLS AND MEDIUM USED FOR PREPARING INDUCED PLURIPOTENT STEM CELLS” (SHANGHAI INSTITUTE OF MATERIA MEDICA, CHINESE ACADEMY OF …, priority 2010, published 2013)", "assay_type_in_all_cases": "cell-based", "key": {"[1]": {"system": "OG2 mouse embryonic fibroblasts", "test": "Three-factor iPS induction, percentage of Oct-GFP+ cells by flow cytometry", "conditions": "three factors, 10 mM LiCl, day 16", "procedure": "(§1) Retrovirus were produced by transfecting plat-E cells with pMXs retroviral vectors containing the cDNAs of mouse Oct4, Sox2, Klf4 and c-Myc (purchased from Addgene) using Fugene HD (Roche) according to the manufacturer's protocol. After 48 hours, virus-containing supernatants were collected and filtered. The filtered supernatant was supplemented with 8 mg/L of polybrene, and then was used to infect mouse embryonic fibroblasts. The day when adding virus containing supernatants is counted as “day 0”. […]\n(§2) The main method for calculating the reprogramming efficiency is the counting of the Oct-GFP^+ cells, including: 1. Using flow cytometry to determine the percentage of Oct-GFP^+ cells in the cell culture, which were infected with four factors for 10 to 12 days or with three factors for 14 to 16 days, or 2. directly counting the Oct-GFP^+ colonies in the wells by using fluorescence microscope.\n(§3) a. […] The day of viral infection was counted as “day 0”. […]\nc. Using the method described in step a, on day 16, cells were trypsinized and the percentage of Oct-GFP^+ cells was determined by using flow cytometry."}, "[2]": {"system": "OG2 mouse embryonic fibroblasts", "test": "Three-factor (Oct4, Sox2, Klf4) iPS induction, counting of Oct-GFP+ colonies by fluorescence microscope", "conditions": "three factors, day 14", "procedure": "as §1, §2, §3\nb. Using the method described in step a, from day 12, Oct-GFP^+ colonies were observed and counted under an inverted fluorescence microscope every day, and pictures were also taken with a fluorescence microscope."}, "[3]": {"system": "OG2 mouse embryonic fibroblasts", "test": "Four-factor iPS induction, percentage of Oct-GFP+ cells by flow cytometry", "conditions": "four factors, 10 mM LiCl, day 12, three independent experiments", "procedure": "as §1, §2, §3\nc. Using the method described in step a, on day 12, cells were trypsinized and percentage of Oct-GFP^+ cells was determined by using flow cytometry. […]"}, "[4]": {"system": "OG2 mouse embryonic fibroblasts", "test": "Four-factor (Oct4, Sox2, Klf4, c-Myc) iPS induction, counting of Oct-GFP+ colonies by fluorescence microscope", "conditions": "four factors; for number of Oct-GFP+ colonies per well: 96-well plate", "procedure": "Retrovirus were produced by transfecting plat-E cells with pMXs retroviral vectors containing the cDNAs of mouse Oct4, Sox2, Klf4 and c-Myc (purchased from Addgene) using Fugene HD (Roche) according to the manufacturer's protocol. After 48 hours, virus-containing supernatants were collected and filtered. The filtered supernatant was supplemented with 8 mg/L of polybrene, and then was used to infect mouse embryonic fibroblasts. The day when adding virus containing supernatants is counted as “day 0”. The fibroblasts infected with the virus were cultured in the mES medium, and iPS colonies were picked from day 14 to the day 18 after infection (four-factor infection experiment) or from day 20 to day 24 after infection (three-factor infection experiment), based on the expression of Oct-GFP and the typical morphology of stem cells.\nas §2\na. Same volumes of the viruses carrying Oct4, Sox2, Klf4 or c-Myc were mixed and added to a total of 180,000 OG2 mouse embryonic fibroblasts in one well of a 6-well plate and cells were cultured in DMEM medium supplemented with 10% fetal bovine serum at 37° C. and 5% CO2. The day of viral infection was counted as “day 0”. On day 2, cells were trypsinized and resuspended in the mES medium, and then seeded at a density of 5,000 cells per well onto a 96-well plate pre-seeded with irradiated mouse embryonic fibroblast feeders. The mES medium supplemented with different concentrations of LiCl (0.6 mM, 1.2 mM, 2.5 mM, 5 mM, 10 mM, 20 mM and 40 mM) were used from day 3. On day 6, the medium was replaced with KSR medium supplemented with different concentrations of LiCl (0.6 mM, 1.2 mM, 2.5 mM, 5 mM, 10 mM, 20 mM and 40 mM). On day 8, the medium was replaced with KSR medium again.\nb. Using the method described in step a, from day 8, Oct-GFP^+ colonies were observed and counted under an inverted fluorescence microscope every day, and pictures were also taken with a fluorescence microscope. FIG. 2A was representative images of wells in the 96-well plate on day 10, in which there were more GFP^+ colonies in 10 mM LiCl treated well than in untreated well. […] On day 8, GFP^+ colony could barely be observed in control wells, while approximately 10 GFP^+ colonies could be observed in 10 mM LiCl treated wells. On day 10, approximately 20 GFP^+ colonies could be observed in 10 mM LiCl treated wells, with induction efficiency 5 to 6 times of that of control wells'."}}, "note": "“Also recorded” adds a separate entry of the source.", "data": [{"smiles": "[Cl-].[Li+]", "note": "[LiCl, lithium chloride]", "values": [{"measurement": "increase of percentage of Oct-GFP+ cells versus control groups", "setting": "[1]", "result": "approximately 60 times"}, {"measurement": "percentage of Oct-GFP+ cells", "setting": "[1]", "result": 14.5, "unit": "%"}, {"measurement": "induction efficiency of iPS cells versus control groups (colony count)", "setting": "[2]; 5 mM or 10 mM LiCl", "result": "enhanced; also recorded: significantly improved"}, {"measurement": "induction efficiency increase versus control groups (colony count)", "setting": "[2]; 10 mM LiCl", "result": "approximately 7 times"}, {"measurement": "induction efficiency increase versus wells without treatment (flow cytometry)", "setting": "[3]", "result": "5 to 6", "unit": "times"}, {"measurement": "number of Oct-GFP+ colonies per well", "setting": "[4]; 10 mM LiCl, day 8 after infection", "result": "approximately 10"}, {"measurement": "induction efficiency relative to control wells (colony count)", "setting": "[4]; 10 mM LiCl, day 10", "result": "5 to 6", "unit": "times"}, {"measurement": "number of Oct-GFP+ colonies per well", "setting": "[4]; 10 mM LiCl, day 10 after infection", "result": "approximately 20"}, {"measurement": "most effective dose of LiCl (number of positive colonies)", "setting": "[4]; tested 0.6-40 mM", "result": 10, "unit": "mM"}]}]}
